These results are taken from patent US12728107B2, “Sirtuin activator, and method for activating sirtuin” (Yuki Gosei Kogyo Co., Ltd., priority 2020, dated 2026).

Read-outs that look alike come from different tables or passages of the source.

For assay [1], the system named is senescence-associated β-galactosidase (SA-β-Gal) in skin dermal fibroblasts. Briefly: Senescence marker SA-β-Gal activity (C12FDG fluorescence) in etoposide-treated skin dermal fibroblasts. Particulars: FIG. 4.
The subject of assay [2] is Sirt3 gene. Conditions: HaCaT cells; β-alanine 500 μM and 10 mM; added twice, 24 h apart; vs 1×PBS control; FIG. 2. Here is the method:
(§1) In this example, a transcription of the Sirt1 gene and Sirt3 gene in HaCaT cells, a human epidermal keratinocyte cell line, was measured.
(§2) HaCaT cells were seeded in 6-well plates at 6.0×10^4 cells/well. After 24 hours, β-alanine was added to the cells, and 1×PBS was added to the control cells. After 24 hours of the addition, sample was secondary added, and the medium was aspirated after 24 hours of the second addition of sample. Then, 1×PBS was added at 1 mL/well to wash the cells. RNA extraction from cells, cDNA synthesis, and RT-PCR were performed by the same procedure as in Example 1. The sequences of the used primers of the human sirtuin genes are as follows.

Assay [3] has as its system Sirt1 gene. Conditions: HaCaT cells; β-alanine 500 μM and 10 mM; added twice, 24 h apart; vs 1×PBS control; FIG. 2. As to the method: as §1, §2
Assay [4] deals with Sirt3 gene. Particulars: skin dermal cells; culture supernatant of C2C12 cells treated with β-alanine; FIG. 3. Here is the method:
(§3) In this example, the activation of the sirtuin gene in skin dermal cells via a substance secreted from muscle cells (C2C12 cells) by β-alanine was examined.
(§4) C2C12 cells were seeded in 5-mL Dish at 2.0×10^5 cells/well, and 48 hours later, the medium was replaced with DMEM medium containing 2% HS to induce differentiation. The culture medium was changed every 2 days to a new medium, and differentiation was induced. Then, the medium was changed every 2 days and β-alanine was added, and the culture supernatant was collected after 8 days of culture. 1×PBS was added to the control cells. After 24 hours of the addition, sample was secondary added, and the culture supernatant was collected after 24 hours of the second addition of sample.
(§5) Specifically, cells were seeded at a concentration of 3.0×10^4 cells/mL in a 5 mL dish.
(§6) RNA extraction from cells, cDNA synthesis, and RT-PCR were performed by the same procedure as in Example 2. The sequences of the used primers of the human sirt6 gene are as follows.

In a further assay the test system is Sirt6 gene. Conditions: skin dermal cells; culture supernatant of C2C12 cells treated with β-alanine; FIG. 3. As to the method:
as §3, §4, §5, §6

Assay [5] has as its system Sirt1 gene. Particulars: skin dermal cells; culture supernatant of C2C12 cells treated with β-alanine; FIG. 3. Here is the method:
as §3, §4, §5, §6

In assay [6] the test system is Sirt1 gene. Particulars: differentiated C2C12 cells; β-alanine 500 μM and 1 mM; added twice, 24 h apart; vs 1×PBS control; FIG. 1.
Assay [7] deals with Sirt3 gene. Conditions: differentiated C2C12 cells; β-alanine 500 μM and 1 mM; added twice, 24 h apart; vs 1×PBS control; FIG. 1.

With `COc1cc([C@@H]2c3cc4c(cc3[C@@H](O[C@@H]3O[C@@H]5CO[C@@H](C)O[C@H]5[C@H](O)[C@H]3O)[C@H]3COC(=O)[C@H]23)OCO4)cc(OC)c1O` [etoposide, reference compound], the “fluorescence intensity of C12FDG (SA-β-Gal activity)” value in assay [1] (dermal fibroblasts, etoposide 50 μM for 30 minutes, vs DMSO control) is “significantly enhanced”.
Turning to `NCCC(=O)O` [β-alanine, 3-aminopropanoic acid], the “fluorescence intensity of C12FDG (SA-β-Gal activity)” value in assay [1] (etoposide-treated dermal fibroblasts, culture supernatant of β-alanine-treated C2C12 cells, 48 hours) is listed as “decreased”. Besides, the “expression of Sirt3” value in the assay on Sirt3 gene [2], in the assay on Sirt3 gene [4] and in the assay on Sirt3 gene [7] was “enhanced” throughout. The “expression of Sirt1” value in the assay with Sirt1 gene [3], with Sirt1 gene [5] and with Sirt1 gene [6] was “enhanced” each time. The “expression of Sirt6” value in the assay on Sirt6 gene is listed as “enhanced”.
